ChEMBL document CHEMBL1132018, “Design and synthesis of thiol containing inhibitors of matrix metalloproteinases” (Bioorg Med Chem Lett, 1999)

Assays:
[1] = biological target: T1, Interstitial collagenase (Homo sapiens, UniProt P03956); assay: In vitro inhibitory activity against matrix metalloprotease 1
T1 sequence (P03956 whole entry): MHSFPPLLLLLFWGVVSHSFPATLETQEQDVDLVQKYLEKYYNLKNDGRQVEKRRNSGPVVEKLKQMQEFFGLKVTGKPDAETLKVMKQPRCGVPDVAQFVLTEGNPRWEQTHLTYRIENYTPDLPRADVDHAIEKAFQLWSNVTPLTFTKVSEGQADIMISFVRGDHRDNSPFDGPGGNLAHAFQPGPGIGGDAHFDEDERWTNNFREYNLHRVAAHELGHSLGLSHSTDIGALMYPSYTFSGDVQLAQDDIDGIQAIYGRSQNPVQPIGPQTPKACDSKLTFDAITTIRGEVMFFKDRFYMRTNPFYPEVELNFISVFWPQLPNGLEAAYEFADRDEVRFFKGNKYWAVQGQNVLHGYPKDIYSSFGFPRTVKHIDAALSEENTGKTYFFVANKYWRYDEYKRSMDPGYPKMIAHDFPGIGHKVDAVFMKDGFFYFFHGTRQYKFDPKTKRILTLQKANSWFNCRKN

[2] = biological target: Matrix metalloproteinase-9 (Rattus norvegicus, UniProt P50282); assay: In vitro inhibitory activity against matrix metalloprotease-9
[3] = system: Rattus norvegicus; assay: Drug level in plasma was determined 4 hours after administration to 2 rats orally at 75 umol/kg; assay type: functional, organism-based
[4] = system: Rattus norvegicus; assay: Drug level in plasma was determined 2 hours after administration to 2 rats orally at 75 umol/kg; assay type: functional, organism-based
[5] = system: Rattus norvegicus; assay: Drug level in plasma was determined 4 hours after administration to 3 rats orally at 75 umol/kg; assay type: functional, organism-based
[6] = system: Rattus norvegicus; assay: Drug level in plasma was determined 2 hours after administration to 3 rats orally at 75 umol/kg; assay type: functional, organism-based
[7] = biological target: T1, Interstitial collagenase; assay: Inhibition of matrix metalloprotease 1 (MMP 1)

Chain of Matrix metalloproteinase-9 (P50282 whole entry): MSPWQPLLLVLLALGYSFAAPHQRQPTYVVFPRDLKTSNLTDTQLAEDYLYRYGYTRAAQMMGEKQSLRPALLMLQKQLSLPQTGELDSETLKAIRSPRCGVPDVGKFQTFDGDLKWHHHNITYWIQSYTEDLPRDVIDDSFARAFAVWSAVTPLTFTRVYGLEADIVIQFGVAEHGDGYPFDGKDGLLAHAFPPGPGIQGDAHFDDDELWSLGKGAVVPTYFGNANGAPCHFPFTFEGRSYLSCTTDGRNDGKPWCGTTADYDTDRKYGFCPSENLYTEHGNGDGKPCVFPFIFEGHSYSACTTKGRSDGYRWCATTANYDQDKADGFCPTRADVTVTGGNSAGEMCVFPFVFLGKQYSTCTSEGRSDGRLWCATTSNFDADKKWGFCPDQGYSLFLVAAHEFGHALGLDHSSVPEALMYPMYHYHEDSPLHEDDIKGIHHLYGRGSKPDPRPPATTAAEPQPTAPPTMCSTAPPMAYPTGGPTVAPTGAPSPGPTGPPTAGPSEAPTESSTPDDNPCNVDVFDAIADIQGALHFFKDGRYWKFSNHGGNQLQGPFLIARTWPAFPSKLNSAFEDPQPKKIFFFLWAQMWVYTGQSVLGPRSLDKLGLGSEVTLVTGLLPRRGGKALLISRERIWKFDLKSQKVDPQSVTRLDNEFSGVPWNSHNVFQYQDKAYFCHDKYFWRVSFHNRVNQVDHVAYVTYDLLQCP

Row | SMILES | IC50 [1] [µM] | IC50 [2] [µM] | further results
1 | CCO[C@H]1CC[C@@](CS)(C(=O)N[C@@H](Cc2ccccc2)C(=O)Nc2ccc(N(C)C)cc2)CC1 | 1.33 | 0.063 | 
2 | CCO[C@H]1CC[C@@](CS)(C(=O)N[C@@H](Cc2cccnc2)C(=O)Nc2ccccc2)CC1 | 0.564 | 0.021 | 
3 | CCC[C@H]1CC[C@@](CS)(C(=O)N[C@@H](Cc2ccccc2)C(=O)NC)CC1 |  | > 10 | 
4 | CCO[C@H]1CC[C@@](CS)(C(=O)N[C@@H](Cc2ccccc2)C(=O)Nc2ccc(OC)cc2)CC1 | 1.27 | 0.046 | 
5 | CCO[C@H]1CC[C@@](CS)(C(=O)N[C@@H](Cc2ccccc2)C(=O)Nc2ccc(Cl)cc2)CC1 | 5.91 | 0.079 | 
6 | CCO[C@H]1CC[C@@](CS)(C(=O)N[C@@H](Cc2ccccc2)C(=O)NC2CCCC2)CC1 | 0.561 | 0.024 | 
7 | CNC(=O)[C@H](Cc1ccccc1)NC(=O)[C@]1(CS)CC[C@H](C(C)(C)C)CC1 |  | > 10 | 
8 | CCO[C@H]1CC[C@@](CS)(C(=O)N[C@@H](Cc2ccc(O)cc2)C(=O)Nc2ccccc2)CC1 | 0.739 | 0.014 | 
9 | CCO[C@H]1CC[C@@](CS)(C(=O)N[C@@H](Cc2ccccc2)C(=O)Nc2ccccn2)CC1 | 3.47 | 0.121 | 
10 | CNC(=O)[C@H](Cc1ccccc1)NC(=O)[C@]1(CS)CC[C@H](OC)CC1 | 0.11 | 0.035 | 
11 | CCO[C@H]1CC[C@@](CS)(C(=O)N[C@@H](Cc2ccc(F)cc2)C(=O)Nc2ccccc2)CC1 | 6.26 | 0.083 | 
12 | CCO[C@H]1CC[C@@](CS)(C(=O)N[C@@H](Cc2ccc(Cl)cc2)C(=O)Nc2ccccc2)CC1 | 1.94 | 0.066 | 
13 | CNC(=O)[C@H](Cc1ccccc1)NC(=O)[C@@]1(CS)CCCC(OC)C1 (stereo partly specified) |  | > 10 | 
14 | CCO[C@H]1CC[C@@](CS)(C(=O)N[C@@H](Cc2ccccc2)C(=O)NC)CC1 | 0.7 | 0.018 | 
15 | CCO[C@H]1CC[C@@](CS)(C(=O)N[C@@H](Cc2ccccc2)C(=O)NC(C)C)CC1 | 0.68 | 0.04 | 
16 | CCOc1ccc(C[C@H](NC(=O)[C@]2(CS)CC[C@H](OCC)CC2)C(=O)Nc2ccccc2)cc1 | 3.27 | 0.034 | 
17 | CCCO[C@H]1CC[C@@](CS)(C(=O)N[C@@H](Cc2ccccc2)C(=O)NC)CC1 | 6.03 | 0.63 | 
18 | CCO[C@H]1CC[C@@](CS)(C(=O)N[C@@H](Cc2ccccc2)C(=O)Nc2cccnc2)CC1 | 0.135 | 0.017 | Plasma concentration [3]: 289 nM; Plasma concentration [4]: 253 nM
19 | CCO[C@H]1CC[C@@](CS)(C(=O)N[C@@H](Cc2ccccc2)C(=O)NCc2ccccc2)CC1 | 0.823 | 0.026 | Plasma concentration [5]: 491 nM; Plasma concentration [6]: 837 nM
20 | CCO[C@H]1CC[C@@](CS)(C(=O)N[C@@H](Cc2ccccc2)C(=O)Nc2ccc(OC(F)(F)F)cc2)CC1 | > 10 | 0.081 | 
21 | CCO[C@H]1CC[C@@](CS)(C(=O)N[C@@H](Cc2ccccc2)C(=O)Nc2ccccc2)CC1 (stereo in doubt; 14) |  | > 10 | 
22 | CCO[C@H]1CC[C@@](CS)(C(=O)N[C@@H](Cc2ccccc2)C(=O)NC2CCCCC2)CC1 | 2.93 | 0.079 | 
23 | CCO[C@H]1CC[C@@](CS)(C(=O)N[C@@H](Cc2cccs2)C(=O)Nc2ccccc2)CC1 | 0.953 | 0.042 | 
24 | CCO[C@H]1CC[C@@](CS)(C(=O)N[C@@H](Cc2ccccc2)C(=O)Nc2ccccc2)CC1 (stereo in doubt; 13) | 1.22 | 0.049 | 
25 | CCO[C@H]1CC[C@@](CS)(C(=O)N[C@@H](Cc2ccccc2)C(=O)Nc2ccc(F)cc2)CC1 | 2.15 | 0.052 | 
26 | CNC(=O)[C@H](Cc1ccccc1)NC(=O)[C@]1(CS)CC[C@H](C(F)(F)F)CC1 | 0.669 | 0.108 | 
27 | CCO[C@H]1CC[C@@](CS)(C(=O)N[C@@H](Cc2ccc(OC)cc2)C(=O)Nc2ccccc2)CC1 |  | 0.02 | IC50 [7]: 1.06 µM
28 | CNC(=O)[C@H](Cc1ccccc1)NC(=O)C1(CS)CCCCC1 | 5.03 | 0.35 | 
